Structures are written as SMILES. Entries after “also recorded” stand apart in the source; their conditions may differ.

One data set deals with Molt-4 T-cell Leukemia. The conditions noted are these: molt-4 cells.
In the next data set the test system is PC-3 Prostate Carcinoma. As to conditions: pc-3 cells.
For data set [1], the system named is DU-145 Prostate Carcinoma. The conditions noted are these: du-145 cells.
Data set [2] concerns Ln-Cap Prostate Carcinoma. The conditions noted are these: lncap cells.
In data set [3] the test system is Ovcar-3 Ovarian Carcinoma. As to conditions: ovcar-3 cells.
In a further data set the test system is MCF-7 Breast Carcinoma. The conditions noted are these: mcf-7 cells.
A short description of data set [4]: Water solubility / formulation in aqueous vehicles.
Data set [5] relates to panel of human tumor cell lines. Briefly: Cytotoxic activity in a panel of human tumor cell lines as compared to paclitaxel.
For data set [6] the following is noted: Physician's Desk Reference (1994) 670, cited from earlier work.
For data set [7] the following is noted: background; cited from earlier work.
Data set [8] relates to PC-3 human prostate tumor. The data set can be described thus: In vivo efficacy against established PC-3 human prostate tumor in athymic nude mice. From the text:
Example 11. In vivo efficacy of Taxoid BP-193

For the compound `CC(=O)O[C@H]1C(=O)[C@]2(C)[C@@H](OC(=O)OCC(O)CO)C[C@H]3OC[C@@]3(OC(C)=O)[C@H]2[C@H](OC(=O)c2ccccc2)[C@]2(O)C[C@H](OC(=O)[C@H](OC(=O)OCC(O)CO)[C@@H](NC(=O)c3ccccc3)c3ccccc3)C(C)=C1C2(C)C` (stereo partly shown) [BP-177, 2',7-di(2",3"-dihydroxypropylcarbonoxy)paclitaxel], the IC50 in the data set with Molt-4 T-cell Leukemia is 703 nM; with PC-3 Prostate Carcinoma it was 57.3 nM; in data set [1], 91.4 nM; in data set [2] it was 27.1 nM; in data set [3], 50 nM; in the data set on MCF-7 Breast Carcinoma, 335 nM. Further, in data set [4], the “formulation in aqueous vehicles” value is on record as “readily formulated in standard aqueous vehicles”. For the same compound, the “water solubility as compared with paclitaxel” value in [4] is reported as “more water soluble than paclitaxel”. Besides, the “cytotoxic activity as compared to paclitaxel” value in data set [5] is reported as “comparable cytotoxic activity to paclitaxel”.

With `CC(=O)O[C@H]1C(=O)[C@@]2(C)[C@H]([C@H](OC(=O)c3ccccc3)[C@]3(O)C[C@H](OC(=O)[C@H](O)[C@@H](NC(=O)c4ccccc4)c4ccccc4)C(C)=C1C3(C)C)[C@]1(OC(C)=O)CO[C@@H]1C[C@@H]2O` [Taxol, paclitaxel, reference compound], the IC50 stood at 2.12 nM in [1], 1.5 nM in [2], 2.24 nM in data set [3] and 5 nM in the data set on MCF-7 Breast Carcinoma. For the same compound, the “plasma concentration following infusion” value in [6] is “rapidly declines following infusion”. Further, the “mean steady state volume of distribution” value in [6] (following infusion) is listed as 42 to 162 LIm^2. For the same compound, in data set [7], the “side effects (hypersensitivity, myelosuppression, neuropathy, alopecia, cardio-toxicity)” value was “about 30 % of patients”.

As for `CC(=O)O[C@H]1C(=O)[C@@]2(C)[C@H]([C@H](OC(=O)c3ccccc3)[C@]3(O)C[C@H](OC(=O)[C@H](OC(=O)OCC(O)CO)[C@@H](NC(=O)c4ccccc4)c4ccccc4)C(C)=C1C3(C)C)[C@]1(OC(C)=O)CO[C@@H]1C[C@@H]2O` (stereo partly shown) [BP-171, 2'-(2",3"-dihydroxypropylcarbonoxy)paclitaxel], in data set [4], the “formulation in aqueous vehicles” value is on record as “readily formulated in standard aqueous vehicles” and the “water solubility as compared with paclitaxel” value was “more water soluble than paclitaxel; also recorded: enhanced water solubility as compared with paclitaxel”. Further, the “cytotoxic activity as compared to paclitaxel” value in data set [5] is recorded as “cytotoxic activity equal to, or greater than, paclitaxel”.

For the compound `CC(=O)O[C@H]1C(=O)[C@@]2(C)[C@H]([C@H](OC(=O)c3ccccc3)[C@]3(O)C[C@H](OC(=O)[C@H](OC(=O)NCC(O)CO)[C@@H](NC(=O)c4ccccc4)c4ccccc4)C(C)=C1C3(C)C)[C@]1(OC(C)=O)CO[C@@H]1C[C@@H]2O` (stereo partly shown) [BP-174, 2'-(2",3"-dihydroxypropylcarbamoxy) paclitaxel], in [4], the “formulation in aqueous vehicles” value is “readily formulated in standard aqueous vehicles” and the “water solubility as compared with paclitaxel” value was “more water soluble than paclitaxel; also recorded: enhanced water solubility as compared with paclitaxel”. Moreover, in data set [5], the “cytotoxic activity as compared to paclitaxel” value was “comparable cytotoxic activity to paclitaxel”.

Consider `CC(=O)O[C@H]1C(=O)[C@]2(C)[C@@H](OC(=O)OCC(O)CO)C[C@H]3OC[C@@]3(OC(C)=O)[C@H]2[C@H](OC(=O)c2ccccc2)[C@]2(O)C[C@H](OC(=O)[C@H](O)[C@@H](NC(=O)c3ccccc3)c3ccccc3)C(C)=C1C2(C)C` (stereo partly shown) [BP-179, 7-(2",3"-dihydroxypropylcarbonoxy)paclitaxel], for which the IC50 in the data set on Molt-4 T-cell Leukemia was found to be 199 nM; with PC-3 Prostate Carcinoma it was 3.24 nM; in [1], 20.5 nM; in data set [2], 20.5 nM; in data set [3] it was 50 nM; in the data set on MCF-7 Breast Carcinoma, 815 nM.

For `CC(=O)O[C@H]1C(=O)[C@@]2(C)[C@H]([C@H](OC(=O)c3ccccc3)[C@]3(O)C[C@H](OC(=O)[C@H](OC(=O)OCCC(O)CO)[C@@H](NC(=O)c4ccccc4)c4ccccc4)C(C)=C1C3(C)C)[C@]1(OC(C)=O)CO[C@@H]1C[C@@H]2O` (stereo partly shown) [BP-193, 2'-(3^11,4"-dihydroxybutyl-carbonoxy)paclitaxel], in data set [8] (PC-3 tumor-bearing mice), the “toxicity as compared with paclitaxel” value is reported as “lacking the toxicity of paclitaxel”. The tumor regression entry in data set [8] (all mice treated with BP-193) is on record as “all tumors regressed to pretreatment levels”. Also, the “anti-cellular proliferative activity, as measured by the reduction in tumor growth” value in data set [8] (established PC-3 tumor, vs vehicle and Taxol control) is listed as “significant anti-cellular proliferative activity”. Further, the IC50 was determined as 3.97 nM in the data set with Molt-4 T-cell Leukemia; 1550 nM in the data set with PC-3 Prostate Carcinoma; 1.4 nM in [1]; 19.5 nM in data set [2]; 55 nM in data set [3]; 8.65 nM in the data set on MCF-7 Breast Carcinoma. Moreover, the “formulation in aqueous vehicles” value in [4] was “readily formulated in standard aqueous vehicles”. Also, the “water solubility as compared with paclitaxel” value in [4] is “more water soluble than paclitaxel”. Besides, the “cytotoxic activity as compared to paclitaxel” value in data set [5] is “cytotoxic activity equal to, or greater than, paclitaxel”.

With `CC(=O)O[C@H]1C(=O)[C@]2(C)[C@@H](OC(=O)NCCN3C(=S)N(c4ccc(C#N)c(C(F)(F)F)c4)C(=O)C3(C)C)C[C@H]3OC[C@@]3(OC(C)=O)[C@H]2[C@H](OC(=O)c2ccccc2)[C@]2(O)C[C@H](OC(=O)[C@H](O)[C@@H](NC(=O)c3ccccc3)c3ccccc3)C(C)=C1C2(C)C` [BP-196, 7-[imidazolidinyl-5", 5"-dimethyl-4"-oxo-3"-[(4"'-cyano-3"'-trifluoromethyl)phenyl]-2"-thioxo-1"ethylcarbamoxy]paclitaxel], in data set [4], the “formulation in aqueous vehicles” value is listed as “readily formulated in standard aqueous vehicles” and the “water solubility as compared with paclitaxel” value is “more water soluble than paclitaxel”. Further, the “cytotoxic activity as compared to paclitaxel” value in [5] is “comparable cytotoxic activity to paclitaxel”.
